According to patent US20250066423A1, “SESTRIN-MAPK COMPLEX INHIBITORS” (Sentcell Ltd, priority 2021, published 2025):
Peptide text beside a SMILES is read from it.

Legend:
H1N1 PR8/54 = system: H1N1 PR8/54; parameters: species or system mice; conditions: mouse, in vivo
[1] = system: telomere extension in T cells exposed to APCs; assay: Telomere length quantification assay (qPCR); type: cell-based, human; conditions: 5 donors
Text: FIG. 23 illustrates live transfer of telomeres from APC to T cells in the presence of DOS. (A, left): T cells showing baseline fluorescence in the channel of Tel C; (A, middle): T cells treated with DOS cultured with APC; (A, right): T cells co-cultured with APC, in the absence of DOS. DOS enhances telomere transfer by ˜2 fold. Representative of 3 experiments. (B): Telomere extension was quantified by qPCR. Synapse-driven telomere extension (Akb) in T cells exposed to APCs and treated with or without DOS46L. Results from 5 donors are shown. […] Mann-Whitney was used. *p<0.05.
• 1. CD4− and CD4+ cells were purified from PBMC using appropriate microbead kit (Miltenyi) • 2. CD4+ cells were then used to purify CD27− and CD28− cells by using Miltenyi purification kits. • 3. A pellet of CD4− and CD4+/CD27−/CD28− cells were frozen. • 4. 4*10^6 CD4− were mixed with 1*10^6 CD4+/CD27−/CD28− cells in presence or not of DOS 46L 10 μM. • 14. The mixed cells were stimulated o.n. with a mix 1:1 of CMV and EBV • 15. The day after, CD4− cells were detached from conjugates with CD4+/CD27−/CD28− cells with a syringe by using cold PBS • 5. CD4− were then purified from CD4+ cells by using Miltenyi purification kits. • 16. CD4− and CD4+ cell pellets post conjugate were then frozen. • 17.

CC[C@H](C)[C@@H]1NC(=O)[C@H](Cc2ccccc2)NC(=O)[C@H](C)NC(=O)[C@H](C(C)C)NC(=O)[C@@H]2CCCN2C1=O [DOS46L] (cyclo(AFIPV))
protection from lethal viral challenge without vaccine (H1N1 PR8/54): prevented death
synapse-driven telomere extension [1]: restoration in telomere length is similar to the extension observed in young T cells
